Results published in patent publication US20260083865A1, “PROSTATE SPECIFIC MEMBRANE ANTIGEN (PSMA) LIGANDS AND USE THEREOF” (priority 2022, published 2026).
Where two headings read alike, the source gives them in different places. Bridge positions count the residues as written; N and C are the ends. Square brackets hold non-standard residues; d marks the D form. Peptide text beside a SMILES is read from it. * marks the point of attachment. X7 = O=C(O)CN1CCN(CC(=O)O)CCN(CC(=O)NC2CCN(CC(=O)*)CC2)CCN(CC(=O)O)CC1; DOTA = O=C(O)CN1CCN(CC(=O)O)CCN(CC(=O)*)CCN(CC(=O)O)CC1; Phe(4-Cl) = N[C@@H](Cc1ccc(Cl)cc1)C(=O)O; Phe(4-Me) = Cc1ccc(C[C@H](N)C(=O)O)cc1; Tle = CC(C)(C)[C@H](N)C(=O)O; Aib = CC(C)(N)C(=O)O; Bn = c1ccc(C*)cc1; βAla = NCCC(=O)O

Legend:
[1] = target: T1, Fc-fusion protein of human PSMA (hPSMA-Fc) (Homo sapiens, UniProt Q04609); assay: Surface plasmon resonance assay (Biacore T200, single cycle kinetic); format: binding; settings: hPSMA-Fc, 25° C., read-out: pKD CAT (converted)
T1 construct: purchased Acro Biosystems PSA-H5264
Summary of the method: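 KD, expressed as pKD, came from 1:1 Langmuir fits of reference- and buffer-blank-subtracted SPR data. The runs were single-cycle kinetics at 25° C in HBST/0.1% DMSO over human PSMA-Fc, captured to ~1000 RU on a peptide-coated CM5 surface and regenerated with 10 mM glycine pH 1.5.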

[2] = target: T2, PSMA-expressing C4-2 cells (Homo sapiens, UniProt Q04609); assay: FACS binding assay (competition with 50 nM PSM-0183); settings: read-out: pIC50 [C4-2] CAT (converted)
T2 construct: PSMA-expressing C4-2 cells (ATCC, Cat. No. CRL-3314) were cultured in RPMI-1640; host or cells: C4-2 cells
Summary of the method: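 Competition format: fluorescent tracer PSM-0183 (50 nM) displaced from PSMA on C4-2 cells by a test compound titration over 1 h at 4 °C. Bound tracer was quantified as flow-cytometric AF488 median fluorescence after washing. Four-parameter logistic fits of MFI data gave IC50 and pIC50.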

[3] = pKD category for PSMA SPR activity assay
[4] = pIC50 category of FACS binding, C4-2 cells

T2 sequence (Q04609 whole entry): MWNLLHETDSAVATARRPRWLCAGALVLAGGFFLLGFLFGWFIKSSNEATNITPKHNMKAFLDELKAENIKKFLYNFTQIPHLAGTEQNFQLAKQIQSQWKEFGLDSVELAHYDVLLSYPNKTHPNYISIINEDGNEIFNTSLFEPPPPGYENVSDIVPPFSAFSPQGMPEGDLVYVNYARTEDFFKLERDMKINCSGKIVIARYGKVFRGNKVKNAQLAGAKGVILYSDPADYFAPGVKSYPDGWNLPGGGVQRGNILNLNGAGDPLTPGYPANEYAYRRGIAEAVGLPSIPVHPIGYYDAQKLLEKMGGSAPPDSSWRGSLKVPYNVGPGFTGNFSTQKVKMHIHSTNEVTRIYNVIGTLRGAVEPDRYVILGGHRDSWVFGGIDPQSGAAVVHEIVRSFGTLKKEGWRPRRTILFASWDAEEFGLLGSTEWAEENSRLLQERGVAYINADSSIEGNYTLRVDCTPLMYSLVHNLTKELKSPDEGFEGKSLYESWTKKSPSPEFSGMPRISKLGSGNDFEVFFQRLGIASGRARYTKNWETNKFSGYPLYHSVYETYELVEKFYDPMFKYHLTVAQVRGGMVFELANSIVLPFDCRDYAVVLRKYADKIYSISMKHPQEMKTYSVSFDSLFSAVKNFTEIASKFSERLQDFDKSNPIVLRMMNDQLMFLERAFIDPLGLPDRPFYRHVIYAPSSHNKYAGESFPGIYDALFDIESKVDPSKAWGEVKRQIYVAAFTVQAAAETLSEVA
T1 sequence (Q04609 44-750 limits assumed): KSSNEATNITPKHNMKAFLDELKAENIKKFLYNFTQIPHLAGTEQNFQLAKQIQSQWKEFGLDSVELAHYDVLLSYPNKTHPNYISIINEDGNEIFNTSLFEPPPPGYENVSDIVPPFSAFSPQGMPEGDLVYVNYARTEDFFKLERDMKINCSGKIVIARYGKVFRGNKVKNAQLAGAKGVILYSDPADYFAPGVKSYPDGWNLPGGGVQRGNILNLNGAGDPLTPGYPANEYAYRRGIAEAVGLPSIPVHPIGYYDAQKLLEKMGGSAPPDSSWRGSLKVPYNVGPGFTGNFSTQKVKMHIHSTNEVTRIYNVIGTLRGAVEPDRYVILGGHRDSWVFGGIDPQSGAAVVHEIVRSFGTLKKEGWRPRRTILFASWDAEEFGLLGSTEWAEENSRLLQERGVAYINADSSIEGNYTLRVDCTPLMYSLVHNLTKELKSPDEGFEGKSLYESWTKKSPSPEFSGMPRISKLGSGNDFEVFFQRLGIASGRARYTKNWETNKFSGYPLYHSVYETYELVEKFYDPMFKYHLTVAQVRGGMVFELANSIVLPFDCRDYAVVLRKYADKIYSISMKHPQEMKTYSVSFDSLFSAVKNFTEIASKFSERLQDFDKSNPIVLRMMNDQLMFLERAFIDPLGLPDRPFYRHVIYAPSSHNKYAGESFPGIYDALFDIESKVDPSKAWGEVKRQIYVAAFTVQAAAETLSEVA

Row | SMILES | Kd [1, 3] | IC50 [2, 4] | Kd ([1]; PSMA SPR assay, pKD category) | IC50 ([2]; FACS binding, PSMA-expressing C4-2 cells, pIC50 category)
1 | CC(=O)N[C@H](C(=O)NC(C)(C)C(=O)N[C@@H](CSCc1ccccc1)C(=O)N[C@H]1CSSC[C@@H](C(=O)N[C@H](C(=O)N[C@H](C(N)=O)[C@@H](C)O)C(C)(C)C)NC(=O)[C@H](CC(N)=O)NC(=O)C(C)(C)NC(=O)[C@H](CCCNC(=N)N)NC(=O)[C@H](CCCCN)NC1=O)[C@@H](C)O [PSM-0441, Ac-Thr-Aib-Cys(Bzl)-[Cys-Lys-Arg-Aib-Asn-Cys]-Tle-Thr-NH2] (Ac-T[Aib]C(Bn)CKR[Aib]NC[Tle]T-NH2; disulfide 4-9) | 12.6 to 126 nM | < 200 nM |  | 
2 | CC(=O)N[C@H](C(=O)NC(C)(C)C(=O)N[C@@H](Cc1ccccc1)C(=O)N[C@H]1CSSC[C@@H](C(=O)N[C@H](C(=O)N[C@H](C(N)=O)[C@@H](C)O)C(C)(C)C)NC(=O)[C@H](CO)NC(=O)C(C)(C)NC(=O)[C@H](CCCNC(=N)N)NC(=O)[C@H](CCCCN)NC1=O)[C@@H](C)O [PSM-0279, Ac-Thr-Aib-Phe-[Cys-Lys-Arg-Aib-Ser-Cys]-Tle-Thr-NH2] (Ac-T[Aib]FCKR[Aib]SC[Tle]T-NH2; disulfide 4-9) |  |  | < 12.6 nM | < 200 nM
3 | CC(=O)N[C@H](C(=O)NC(C)(C)C(=O)N[C@@H](Cc1ccc(C)cc1)C(=O)N[C@H]1CSSC[C@@H](C(=O)N[C@H](C(=O)N[C@H](C(N)=O)[C@@H](C)O)C(C)(C)C)NC(=O)[C@H](CC(N)=O)NC(=O)C(C)(C)NC(=O)[C@H](CCCNC(=N)N)NC(=O)[C@H](CCCCN)NC1=O)[C@@H](C)O [PSM-0372, Ac-Thr-Aib-Pmf-[Cys-Lys-Arg-Aib-Asn-Cys]-Tle-Thr-NH2] (Ac-T[Aib][Phe(4-Me)]CKR[Aib]NC[Tle]T-NH2; disulfide 4-9) | < 12.6 nM | < 200 nM |  | 
4 | CC(=O)N[C@H](C(=O)NC(C)(C)C(=O)N[C@@H](Cc1ccccc1)C(=O)N[C@H]1CSSC[C@@H](C(=O)N[C@H](C(=O)N[C@H](C(N)=O)[C@@H](C)O)C(C)(C)C)NC(=O)[C@H](CC(N)=O)NC(=O)[C@H](CCCCNC(=O)CN2CCC(NC(=O)CN3CCN(CC(=O)O)CCN(CC(=O)O)CCN(CC(=O)O)CC3)CC2)NC(=O)[C@H](CCCNC(=N)N)NC(=O)[C@H](CCCCN)NC1=O)[C@@H](C)O [PSM-0464, Ac-Thr-Aib-Phe-[Cys-Lys-Arg-Lys(DOTA-APAc)-Asn-Cys]-Tle-Thr-NH2] (Ac-T[Aib]FCKRK(X7)NC[Tle]T-NH2; disulfide 4-9) | < 12.6 nM | < 200 nM |  | 
5 | CC(=O)N[C@H](C(=O)NC(C)(C)C(=O)N[C@@H](Cc1ccccc1)C(=O)N[C@H]1CSSC[C@@H](C(=O)N[C@H](C(=O)N[C@H](C(N)=O)[C@@H](C)O)C(C)(C)C)NC(=O)[C@H](CC(N)=O)NC(=O)[C@H](CCCCNC(=O)CN2CCN(CC(=O)O)CCN(CC(=O)O)CCN(CC(=O)O)CC2)NC(=O)[C@H](CCC(N)=O)NC(=O)[C@H](CCCCN)NC1=O)[C@@H](C)O [PSM-0385, Ac-Thr-Aib-Pho-[Cys-Lys-Gln-Lys(DOTA)-Asn-Cys]-Tle-Thr-NH2] (Ac-T[Aib]FCKQK(DOTA)NC[Tle]T-NH2; disulfide 4-9) | 126 to 501 nM | 200 to 1260 nM |  | 

Second part, the molecule after the results:

Row | Kd [1, 3] | IC50 [2, 4] | Kd ([1]; PSMA SPR assay, pKD category) | IC50 ([2]; FACS binding, PSMA-expressing C4-2 cells, pIC50 category) | SMILES
6 | < 12.6 nM | < 200 nM |  |  | CC(=O)N[C@H](C(=O)NC(C)(C)C(=O)N[C@@H](Cc1ccc(Cl)cc1)C(=O)N[C@H]1CSSC[C@@H](C(=O)N[C@H](C(=O)NCCC(N)=O)C(C)(C)C)NC(=O)[C@H](CC(N)=O)NC(=O)C(C)(C)NC(=O)[C@H](CCCNC(=N)N)NC(=O)[C@H](CCCCN)NC1=O)[C@@H](C)O [PSM-0514, Ac-Thr-Aib-Pcf-[Cys-Lys-Arg-Aib-Asn-Cys]-Tle-Bal-NH2] (Ac-T[Aib][Phe(4-Cl)]CKR[Aib]NC[Tle][βAla]-NH2; disulfide 4-9)
7 | < 12.6 nM | < 200 nM |  |  | CC(=O)N[C@H](C(=O)NC(C)(C)C(=O)N[C@@H](Cc1ccccc1)C(=O)N[C@H]1CSSC[C@@H](C(=O)N[C@H](C(=O)N[C@H](C(N)=O)[C@@H](C)O)C(C)(C)C)NC(=O)CNC(=O)C(C)(C)NC(=O)[C@H](CCCNC(=N)N)NC(=O)[C@H](CCCCN)NC1=O)[C@@H](C)O [PSM-0479, Ac-Thr-Aib-Phe-[Cys-Lys-Arg-Aib-Gly-Cys]-Tle-Thr-NH2] (Ac-T[Aib]FCKR[Aib]GC[Tle]T-NH2; disulfide 4-9)
